Tested on: Wistar rats
Assay: Aerosil-induced inflammatory reaction, paw swelling
Type: in vivo, rat
Settings: treated 15 hours after noxa, 21 hour value
Protocol: The inflammatory reaction was induced by intraplantary injection of 0.1 ml of a 2% Aerosil suspension into a hind paw of Wistar rats weighing 130-160 g. The inhibitors according to the invention used for the treatment of the inflammatory reaction were dissolved in 0.9% sodium chloride solution in a concentration of 10-20 mg/ml. The experimental animals were treated by intraperitoneal, subcutaneous or intravenous injection of 0.5-1.0 ml of the solution of the inhibitors 15 hours after the inflammatory noxa had been set. The swelling of the inflamed paw, which is a measure of the severity of the inflammatory reaction, was followed with respect to time using a Kemper antiphlogmeter. The 21 hour value after the induction of inflammation (=6 hours after injection of the inhibitors according to the invention) was determined to ascertain the dose/effect relationship.

Substance: basic pancreatic trypsin inhibitor [BPTI]
- Inhibition of the inflammatory reaction, swelling of inflamed paw: does not inhibit the inflammatory reaction

Reference: patent publication US4485100A, “Elastase inhibitors, a process for their preparation and medicaments containing these inhibitors” (Bayer Aktiengesellschaft, priority 1982, dated 1984)
